From article PMC2995054 (Nucleic Acids Research, 2010)

What follows are compounds tested against vaccinia virus D10 decapping enzyme (His-tagged, WT) (Vaccinia virus, UniProt P04312) (assay: biochemical). Details: not given.
Assay type: biochemical

Row | SMILES | Inhibition of the decapping reaction (in words) | IC50 [µM] | Ki [µM]
1 | Cc1cn([C@@H]2O[C@H](COP(=O)(O)OP(=O)(O)OP(=O)(O)O)[C@@H](O)[C@H]2O)c(=O)nc1N [5-methyl-CTP] | unable to affect the activity of the enzyme | – | –
2 | Cc1cn([C@@H]2O[C@H](COP(=O)(O)OP(=O)(O)OP(=O)(O)O)[C@@H](O)[C@H]2O)c(=O)[nH]c1=O [5-methyl-UTP] | unable to affect the activity of the enzyme | – | –
3 | Nc1ccn([C@@H]2O[C@H](COP(=O)(O)OP(=O)(O)O)[C@@H](O)[C@H]2O)c(=O)n1 [CDP] | unable to affect the activity of the enzyme | – | –
4 | Nc1ccn([C@@H]2O[C@H](COP(=O)(O)OP(=O)(O)OP(=O)(O)O)[C@@H](O)[C@H]2O)c(=O)n1 [CTP] | no inhibition | – | –
5 | Nc1nc2nc[nH]c2c(=O)[nH]1 [Guanine] | did not affect the decapping reaction | > 200 | > 0.8
6 | NC(=O)c1ncn([C@@H]2O[C@H](CO[P@@](=O)(O)O[P@](=O)(O)OP(=O)(O)O)[C@@H](O)[C@H]2O)n1 [Ribavirin triphosphate] | – | > 200 | > 0.8
7 | O=c1ccn([C@@H]2O[C@H](COP(=O)(O)OP(=O)(O)O)[C@@H](O)[C@H]2O)c(=O)[nH]1 [UDP] | unable to affect the activity of the enzyme | – | –
8 | O=c1ccn([C@@H]2O[C@H](COP(=O)(O)OP(=O)(O)OP(=O)(O)O)[C@@H](O)[C@H]2O)c(=O)[nH]1 [UTP] | no inhibition | – | –
9 | O=P(O)(O)OP(=O)(O)O [pyrophosphate] | unable to inhibit | – | –
10 | O=P(O)(O)OP(=O)(O)OP(=O)(O)O [tripolyphosphate] | unable to inhibit | – | –

Same assay, conditions: 0.25 h, read-out: Relative decapping activity (%) (100 µM analog)

Row | SMILES | remaining activity at 100 µM [%]
11 | Nc1nc2nc[nH]c2c(=O)[nH]1 [Guanine] | 92 ± 4
12 | NC(=O)c1ncn([C@@H]2O[C@H](CO[P@@](=O)(O)O[P@](=O)(O)OP(=O)(O)O)[C@@H](O)[C@H]2O)n1 [Ribavirin triphosphate] | 96 ± 3
